In patent US9908848B2, “Amide derivatives of lactam based N-acylethanolamine acid amidase (NAAA) inhibitors” (The Regents of the University of California, priority 2013, dated 2018):

Columns and labels:
human NAAA = target: T1, human NAAA (Homo sapiens, UniProt Q02083); assay: Fluorogenic h-NAAA assay; type: biochemical; conditions: recombinant HEK-hNAAA preparation
T1 construct: made in house; host or cells: HEK293 cells, stably transfected; soluble fraction after freeze/thaw
T1 sequence (Q02083 29-359): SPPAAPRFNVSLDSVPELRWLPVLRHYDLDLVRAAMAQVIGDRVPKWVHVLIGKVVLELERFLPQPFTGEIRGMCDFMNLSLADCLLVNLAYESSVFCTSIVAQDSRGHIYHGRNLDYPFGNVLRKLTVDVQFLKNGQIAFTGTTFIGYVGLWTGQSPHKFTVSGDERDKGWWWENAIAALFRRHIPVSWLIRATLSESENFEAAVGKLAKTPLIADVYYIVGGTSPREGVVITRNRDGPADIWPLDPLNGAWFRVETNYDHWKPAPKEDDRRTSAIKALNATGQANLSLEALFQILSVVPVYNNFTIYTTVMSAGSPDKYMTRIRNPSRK
Experimental: Hek293 cells stably transfected with the human NAAA coding sequence cloned from a human spleen cDNA library were used as enzyme source. Recombinant HEK-hNAAA pellets were resuspended in homogenizing buffer, and sonicated. Samples were centrifuged at 800×g for 15 min at 4° C. and the supernatants were ultracentrifuged at 12,000×g for 30 min at 4° C. The pellets were resuspended in PBS pH 7.4 on ice and subjected to a freeze/thaw cycle at −80° C. (two freeze/thaw cycles at −80° C. for Examples 34-37). The suspension was finally centrifuged at 105,000×g for 1 h at 4° C. Protein concentration was measured and samples stored at −80° C. until use.
The assay was run in Optiplate 96-wells black plates, in a total reaction volume of 200 μL. NAAA protein preparation (4.0 μg for Examples except 34-37, which were 20.0 μg) was pre-incubated for 10 min with various concentrations of test compounds or vehicle control (5% DMSO) in 100 mM citrate/phosphate buffer (pH 4.5) containing 3.0 mM DTT, 0.1% Triton X-100, 0.05% BSA, 150 mM NaCl. N-(4-methyl-2-oxo-chromen-7-yl)-hexadecanamide was used as a substrate (5.0 μM) and the reaction carried over for 30 min at 37° C. The samples were then read in a Perkin Elmer Envision plate reader using an excitation wavelength of 360 nm and emission 460 nm. IC50 values were calculated by non-linear regression analysis of log [concentration]/inhibition curves using GraphPad Prism 5 (GraphPad Software Inc., CA—USA) applying a standard slope curve fitting.

[1] = target: T2, Rat AC (r-AC), Acid Ceramidase (Rattus norvegicus, UniProt Q6P7S1); assay: Rat AC (r-AC) assay, UPLC/MS; type: biochemical; conditions: read-out: r-AC UPLC/MS assay % inhib.
T2 construct: V5 (C); His (C); made in house; host or cells: HEK293 cells transfected with pEF6-rAC-V5/His, selected with G418; soluble fraction after freeze/thaw
T2 sequence (Q6P7S1 21-394): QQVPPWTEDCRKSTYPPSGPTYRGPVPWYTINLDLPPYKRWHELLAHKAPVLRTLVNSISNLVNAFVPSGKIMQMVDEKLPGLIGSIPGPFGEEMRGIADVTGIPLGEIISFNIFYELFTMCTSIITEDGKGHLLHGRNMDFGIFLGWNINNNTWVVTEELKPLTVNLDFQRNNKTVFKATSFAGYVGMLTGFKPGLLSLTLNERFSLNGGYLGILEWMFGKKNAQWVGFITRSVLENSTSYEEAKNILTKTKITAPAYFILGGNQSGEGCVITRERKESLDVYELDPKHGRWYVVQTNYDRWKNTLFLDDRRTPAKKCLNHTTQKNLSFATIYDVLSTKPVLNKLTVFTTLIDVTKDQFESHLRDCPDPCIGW
Experimental: The selectivity of selected compounds versus Acid Ceramidase (AC) was determined.
Rat AC (r-AC) was cloned from a brain cDNA library using primers based on the sequence obtained from the National Center for Biotechnology Information (NCBI) database: 5′rAC (5′-GACCATGCTGGGCCGTAGT-3′) (SEQ ID NO:1) and 3′rAC (5′-CCAGCCTATACAAGGGTCT-3′) (SEQ ID NO:2). The PCR (High Fidelity PCR Master, Roche) product was subcloned into a pEF6-V5/His vector (Invitrogen) to construct a mammalian expression vector encoding V5/His-tagged rat AC. HEK293 cells were transfected with pEF6-rAC-V5/His using Super-Fect reagent (Qiagen) and screened with G418 (0.3 mg/mL). Cells were suspended in 20 mM Tris HCl (pH 7.5) containing 0.32M sucrose, sonicated and centrifuged at 800×g for 15 min at 4° C. The supernatants were centrifuged again at 12,000×g for 30 min at 4° C. The pellets were suspended in phosphate-buffered saline (PBS) and subjected to 2 freeze-thaw cycles at −80° C. The suspensions were centrifuged at 105,000×g for 1 hour at 4° C. The supernatants containing recombinant AC were kept at −80° C. until use. Protein concentration was measured using the bicinchoninic acid (BCA) assay (Pierce). Recombinant rat AC (50 μg) was preincubated with inhibitors (final DMSO concentration 1%) in assay buffer (100 mM sodium phosphate, 0.1% Nonidet P-40, 150 mM NaCl, 3 mM DTT, 100 mM sodium citrate, pH 4.5) for 30 min at 37° C. Reactions were started by the addition of 100 μM N-lauroyl ceramide (Nu-Chek Prep, Elysian, Minn.) and carried on for 30 min at 37° C. Reactions were stopped by addition of a mixture of chloroform/methanol (2:1, vol/vol) containing 1 nmol of heptadecanoic acid (HDA; NuChek Prep). The organic phases were collected, dried under N2, and analyzed by LC-MS in the negative-ion mode using […] (HDA) as internal standard (m/z=199 for lauric acid, m/z=269 for HDA). HDA was eluted on an XDB Eclipse C18 column isocratically at 2.2 mL/min for 1 min with a solvent mixture of 95% methanol and 5% water, both containing 0.25% acetic acid and 5 mM ammonium acetate. The column temperature was 50° C. Electrospray ionization (ESI) was in the negative mode, capillary voltage as 4 kV, and fragmentor voltage was 100 V. N2 was used as drying gas at a flow rate of 13 L/min and a temperature of 350° C. Nebulizer pressure was set at 60 psi. We monitored […] in the selected-ion monitoring (SIM) mode using HDA as internal standard. Calibration curves were generated using commercial lauric acid (Nu-Chek Prep; m/z=199).

CCCCCCCCCC(=O)N[C@H]1CNC1=O [Example 23, N-[(3S)-2-Oxoazetidin-3-yl]-decanamide]
IC50 (human NAAA): 86 nM
inhibition at 1 µM [1]: 70%

O=C(CCCCCCC1CCCCC1)N[C@H]1CNC1=O [Example 30, 7-Cyclohexyl-N-[(3S)-2-oxoazetidin-3-yl]-heptanamide]
IC50 (human NAAA): 210 nM
inhibition at 1 µM [1]: 45%
